Results published in patent publication US11246899B2, “Urtica dioica extracts and methods of isolating urtica dioica extracts” (SynHiTech Inc., priority 2018, dated 2022).

Test system: Type 2 diabetic patients
Experiment: Clinical study in Type 2 diabetic patients, blood glucose by glucometer and side effects
Type: in vivo, human
Method: The effect of the Urdi-1 extract was tested on six Type 2 diabetic patients. The consents were filled by patients and were reviewed by the ethical committee of Tehran Hospital. The UD1-extract (20 mg of Urdi-1) was taken orally as one or two dosages per day. Blood glucose was measured by glucometer as fasted or after dining. After getting the promising data at the animal level, we tested the efficacy of Urdi-1 in Type 2 diabetic patients. Six patients (Patient I to VI) with high level of blood glucose consented to participate in the study (Table 2). These patients were selected different sex (male and female) with varying age ranging from mid forty to late sixty. As the level of the referral blood glucose and the medication administrated by their physicians were different data of each patient is presented individually.

[1] = Patient I, after insulin two weeks then Glibenclamide and metformin for one month
[2] = Patient IV, after insulin 17 days then Glibenclamide and metformin for two weeks

## Glibenclamide and metformin
[1]
  fasting blood glucose: about 175 mg/dL
  night blood glucose: ~225 mg/dL
[2]
  fasting blood glucose: about 90 mg/dL
  night blood glucose: ~220 mg/dL
